Measured values as given in patent US4279915A, “Method of treatment using new leurosine derivatives” (priority 1973, dated 1981).

What was measured:
Yoshida ascites sarcoma = test: antitumor effect on Yoshida ascites sarcoma; format: in vivo
Description: The treatment extends the life span of animals suffering from L-1210 lymphoid leukemia, s37 ascites sarcoma or Yoshida ascites sarcoma by about 150 to 250 percent.
(§1) EFFECT OF F-LEUROSINE ON ASCITIC TUMORS

NK/Ly lymphoma = test: antitumor effect on NK/Ly lymphoma; format: in vivo, mice
Description: This compound provides complete recovery or a 300 percent extension of life span in 50 to 70 percent of the cases, in tests on mice inoculated with Ehrlich ascites carcinoma or NK/Ly lymphoma.
as §1

Novikoff = test: antitumor effect on Novikoff ascitic tumor; format: in vivo
Description: |EFFECT OF F-LEUROSINE ON ASCITIC TUMORS

Harding Passey melanoma = test: growth inhibition of Harding Passey melanoma; format: in vivo
[1] = tested on: leukemias and haemoblastoses; test: therapeutic results in leukemias and haemoblastoses (Table VII); format: in vivo, human
Method: In addition, eight patients were added to the group treated on the basis of this schedule. Therapeutic results obtained by F-Leurosine in leukemias and haemoblastoses are listed in Table VII. |Therapeutic Results Obtained by F-Leurosine Treatment

[2] = tested on: lymphoma, leukemia and Hodgkins disease; test: antitumor activity; format: in vivo
solid tumors = test: clinical treatment of patients with solid tumors (Example B); format: in vivo, human; conditions: for decrease of prothrombin index and activity: by the 7th day of treatment
Method: N-formyl-leurosine was administered in form of i.v. injection as single treatment or in 5 and 2×5 day long periods continually to exclusively patients with solid tumors.
Simultaneously adjuvant therapy was applied (analgesics, antibiotics, cardiac drugs, roborants) if necessary.
Following single treatments primarily the effect on blood picture, and especially on leukocyte count was observed. In case of higher total doses given continuously for 5 or 10 days, liver function, enzymes, serum creatinine, uric acid level were also determined. The neurological condition of the patients was also controlled.

[3] = tested on: granulocytes, lymphocytes, platelets; test: haematological parameters; format: in vivo
[4] = 4 × 3.0 mg/kg i.p. each other day

CCC12CN3CCc4c([nH]c5ccccc45)[C@@](C(=O)OC)(c4cc5c(cc4OC)N(C=O)[C@H]4[C@@](O)(C(=O)OC)[C@H](OC(C)=O)[C@]6(CC)C=CCN7CC[C@]54[C@@H]76)C[C@@H](C3)C1O2 (some centres unmarked) [N-formyl-leurosine]
Survival (Yoshida ascites sarcoma; 9 × 0.5 mg/kg i.p. daily): 143 | Tumor free (Yoshida ascites sarcoma; 9 × 0.5 mg/kg i.p. daily): 0/6 | Survival (Yoshida ascites sarcoma; 9 × 1.0 mg/kg i.p. daily): 173 | Tumor free (Yoshida ascites sarcoma; 9 × 1.0 mg/kg i.p. daily): 2/6 | Survival (Yoshida ascites sarcoma; 9 × 2.0 mg/kg i.p. daily): 243 | Tumor free (Yoshida ascites sarcoma; 9 × 2.0 mg/kg i.p. daily): 4/6 | extension of life span (Yoshida ascites sarcoma; Yoshida ascites sarcoma, about): 150-250% | extension of life span (NK/Ly lymphoma): 300% | Survival (NK/Ly lymphoma; 8 × 0.5 mg/kg i.p. daily): 250 | Tumor free (NK/Ly lymphoma; 8 × 0.5 mg/kg i.p. daily): 2/10 | Survival (Novikoff; [4]): 196 | Tumor free (Novikoff; [4]): 1/6 | Survival (Novikoff; 6 × 2.0 mg/kg i.p. daily): 166 | Tumor free (Novikoff; 6 × 2.0 mg/kg i.p. daily): 0/6 | growth inhibition (Harding Passey melanoma): remarkable growth inhibition | Complete remission ([1]; ALL, 1 patient): 1 patients | Complete remission ([1]; AML, 1 patient): 1 patients | Partial remission ([1]; AMoL, 1 patient): 1 patients | Partial remission ([1]; AUL, 1 patient): 1 patients | Partial remission ([1]; CLL, 3 patients): 3 patients | No response ([1]; Hodgkin's disease, 2 patients): 2 patients | No response ([1]; LSC, 5 patients): 1 patients | Partial remission ([1]; LSC, 5 patients): 4 patients | No response ([1]; Multiple myelomo, 6 patients): 2 patients | Partial remission ([1]; Multiple myelomo, 6 patients): 4 patients | No response ([1]; RSC, 2 patients): 1 patients | Partial remission ([1]; RSC, 2 patients): 1 patients | Complete remission ([1]; Total, 22 patients): 2 patients | No response ([1]; Total, 22 patients): 6 patients | Partial remission ([1]; Total, 22 patients): 14 patients | antitumor activity [2]: favorable antitumor activity | tumor growth: progress during the treatment (solid tumors; 0.018 mg/kg during 2×5 days, one case): express progress during the treatment | tumor growth: regression by X-ray and touching (solid tumors; 0.030 mg/kg during 2×5 days, one case): slight regression | leukocyte count change (solid tumors; between the 3rd and 5th days): decreased again | leukocyte count level (solid tumors; between the 3rd and 5th days, remained over): over 3000 | leukocyte count (solid tumors; between the 9th and 14th days): returns to the initial value | tumor growth: other cases (solid tumors; continuous administration): No changes were found in other cases | effect on tumor growth (solid tumors; continuous administration of 0.018-0.035 mg/kg doses): some effect was observed | qualitative blood picture (solid tumors; dose level presently used): no change was shown | levels of enzymes (serum alk, phosphatase, SGOT, SGPT) (solid tumors; during the treatment): did not essentially change | leukocyte count (solid tumors; first 48 hours): increased | liver function, urinalysis, serum creatinine and uric acid levels (solid tumors; human, in vivo): no changes or signs indicating toxicity were found | neurological side-effects (solid tumors; human, in vivo): not observed | decrease of prothrombin index and activity (solid tumors; one case): 50% | prothrombin-time, increase (solid tumors; six cases): increased in three cases out of six | prothrombin time, decrease (solid tumors; two cases): very slightly decreased | decrease of prothrombin index and activity (solid tumors; two cases): 37% | lowering of number of granulocytes ([3]; 0.6 mg/kg): 50% | number of lymphocytes ([3]; 15 mg/kg): decreased only after administration of 15 mg/kg | platelet count ([3]; similar dose level): No significant changes
